Source: ChEMBL document CHEMBL1201862, “PubChem BioAssay data set” (2004)
Active and inactive are the calls of the source.

What was measured:
[1] = target: Potassium voltage-gated channel subfamily KQT member 2 (Rattus norvegicus, UniProt O88943); test: retigabine-insensitive KCNQ2 potentiators, concentration-response, dose response, cell-based, retigabine-insensitive compounds (AID 2654); assay type: functional
[2] = target: Glutathione S-transferase omega-1 (Homo sapiens, UniProt P78417); test: GSTO1 inhibitor potency, recombinant enzyme, late-stage follow-up, biochemical, SE-Rh probe, in-gel fluorescence, powder samples, set 2 (AID 463142); assay type: functional
[3] = NIH-3T3 fibroblast cytotoxicity, dose response, cytotoxicity control, cell-based, fluorescence, Alamar Blue, secondary assay (AID 2327); assay type: functional;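 note: NIH-3T3 mouse fibroblasts cultured with fluconazole at 8 µg/mL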
[4] = C. albicans growth with fluconazole, confirmation, fluorescence, retest (AID 2467); assay type: functional, cell-based
INS1 = test: beta cell apoptosis inhibitors, cytokine rescue, dose response, luminescence, retest (AID 449756); assay type: functional, cell-based; conditions: Rattus norvegicus;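 note: cell death triggered by IL-1 beta plus TNF-alpha plus IFN-gamma mixture; protective hits raise ATP signal compared with cytokine alone wells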
[5] = target: T1, G-protein coupled receptor 55 (Homo sapiens, UniProt Q9Y2T6); test: GPR55 antagonists blocking LPI-driven arrestin recruitment, primary screen, imaging, U2OS, beta-arrestin-GFP, LPI agonist (AID 2013); assay type: functional;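 note: antagonist potency measured as reduced agonist-driven arrestin aggregation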
[6] = target: G-protein coupled receptor 35 (Homo sapiens, UniProt Q9HC97); test: GPR35 antagonists blocking zaprinast-driven arrestin recruitment, primary screen, imaging, U2OS, beta-arrestin-GFP, zaprinast agonist (AID 2058); assay type: functional;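 note: antagonist potency meaning inhibition of agonist-induced arrestin redistribution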
[7] = target: T1, G-protein coupled receptor 55; test: GPR55 agonists via beta-arrestin recruitment, primary screen, imaging, U2OS cells, beta-arrestin-GFP redistribution (AID 1961); assay type: functional
[8] = target: Bifunctional protein GlmU (Mycobacterium tuberculosis, UniProt P9WMN3); test: Inhibitors of Mycobacterial Glucosamine-1-phosphate acetyl transferase (GlmU). Secondary screen.; design: species or system Mycobacterium tuberculosis H37Rv
[9] = target: T2, Histone-lysine N-methyltransferase NSD2 (Homo sapiens, UniProt O96028); assay type: biochemical
T2 sequence (O96028 whole entry): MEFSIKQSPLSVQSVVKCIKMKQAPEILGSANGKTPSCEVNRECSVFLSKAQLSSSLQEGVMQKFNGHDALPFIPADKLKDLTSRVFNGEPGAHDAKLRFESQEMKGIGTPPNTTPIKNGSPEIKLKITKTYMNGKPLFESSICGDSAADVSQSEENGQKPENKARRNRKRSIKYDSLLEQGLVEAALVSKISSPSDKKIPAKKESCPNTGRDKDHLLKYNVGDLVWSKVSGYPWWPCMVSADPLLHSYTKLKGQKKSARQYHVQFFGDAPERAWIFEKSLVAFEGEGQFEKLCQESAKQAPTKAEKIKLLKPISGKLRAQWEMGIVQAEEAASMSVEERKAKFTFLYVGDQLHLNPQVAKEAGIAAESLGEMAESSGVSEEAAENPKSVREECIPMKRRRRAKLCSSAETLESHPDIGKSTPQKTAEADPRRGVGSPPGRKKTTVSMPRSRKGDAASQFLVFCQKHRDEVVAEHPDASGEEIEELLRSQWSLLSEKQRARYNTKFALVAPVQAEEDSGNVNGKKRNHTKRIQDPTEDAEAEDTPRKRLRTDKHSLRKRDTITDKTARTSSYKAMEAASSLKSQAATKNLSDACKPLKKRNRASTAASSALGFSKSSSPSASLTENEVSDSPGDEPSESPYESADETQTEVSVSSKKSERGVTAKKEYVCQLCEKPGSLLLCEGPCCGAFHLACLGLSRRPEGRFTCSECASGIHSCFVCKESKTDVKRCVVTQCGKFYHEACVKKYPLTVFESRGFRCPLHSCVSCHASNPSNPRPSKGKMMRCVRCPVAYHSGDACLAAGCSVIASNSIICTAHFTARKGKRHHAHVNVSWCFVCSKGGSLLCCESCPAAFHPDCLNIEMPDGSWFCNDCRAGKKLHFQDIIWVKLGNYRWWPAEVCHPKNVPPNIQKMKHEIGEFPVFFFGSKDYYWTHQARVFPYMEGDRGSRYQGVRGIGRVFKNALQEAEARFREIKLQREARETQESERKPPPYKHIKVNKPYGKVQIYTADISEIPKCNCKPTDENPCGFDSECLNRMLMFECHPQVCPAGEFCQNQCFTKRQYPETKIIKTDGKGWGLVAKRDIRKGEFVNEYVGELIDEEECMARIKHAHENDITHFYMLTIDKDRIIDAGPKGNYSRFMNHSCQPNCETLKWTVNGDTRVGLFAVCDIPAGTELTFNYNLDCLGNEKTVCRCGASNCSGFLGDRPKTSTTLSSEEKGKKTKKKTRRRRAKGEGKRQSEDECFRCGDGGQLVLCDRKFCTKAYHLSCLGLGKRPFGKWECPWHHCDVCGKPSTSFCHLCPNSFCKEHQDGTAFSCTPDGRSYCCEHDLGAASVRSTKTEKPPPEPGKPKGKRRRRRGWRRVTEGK

[10] = target: T3, Carboxy-terminal domain RNA polymerase II polypeptide A small phosphatase 1 (Homo sapiens, UniProt Q9GZU7); test: inhibitors of CTDSP1, concentration-response testing, biochemical assay, absorbance-based, actives from ultra-high-throughput screening (AID 540297); assay type: functional
T3 sequence (Q9GZU7 whole entry): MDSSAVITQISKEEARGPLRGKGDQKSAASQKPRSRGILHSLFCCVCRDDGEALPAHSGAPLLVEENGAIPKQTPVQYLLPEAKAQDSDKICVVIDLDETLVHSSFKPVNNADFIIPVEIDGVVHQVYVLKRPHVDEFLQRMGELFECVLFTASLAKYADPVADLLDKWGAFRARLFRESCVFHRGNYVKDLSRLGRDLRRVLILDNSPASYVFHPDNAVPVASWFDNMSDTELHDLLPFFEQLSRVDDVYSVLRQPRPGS

Bcl-2-like protein 10 = Bcl-2-like protein 10 (Homo sapiens, UniProt Q9HD36); test: displacers of TR3 peptide from Bcl-B, primary screen, selectivity assay for Bfl-1 inhibitor project, biochemical, fluorescence polarization, FITC-TR3 peptide (AID 748);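 note: fluorescence polarization from a fluorescein-labelled TR3 peptide binding purified Bcl-B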
ORF 73 = ORF 73 (Human herpesvirus 8, UniProt O40947); test: inhibitors of C-LANA binding to LBS DNA, dose response, biochemical, fluorescence polarization, cherry-picked samples (AID 504725); design: species or system Human gammaherpesvirus 8;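 note: fluorescence polarization of a labeled DNA duplex reporting LANA DNA binding; potency is for inhibitors that block LANA binding to the DNA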
[11] = cytotoxicity in BJeH fibroblasts, dose response, counter-screen for Ras selective lethality project, BJeH cells, dry powder (AID 493054); assay type: functional, cell-based
[12] = cytotoxicity in BJeHLT fibroblasts, dose response, counter-screen for Ras selective lethality project, BJeHLT cells, dry powder (AID 493052); assay type: functional, cell-based; conditions: Homo sapiens
[13] = viability loss in HRASV12 DRD fibroblasts, dose response, cell-based, DRD BJ fibroblasts, dry powder (AID 493049); assay type: functional
[14] = viability loss in BJeLR (HRASV12) cells, primary screen, Ras selective lethality project, cell-based, Alamar Blue, dry powder (AID 493045); assay type: functional
[15] = target: T4, Voltage-gated N-type calcium channel alpha-1B subunit/Amyloid beta A4 precursor protein-binding family A member 1 (Homo sapiens, UniProt Q00975+Q02410); test: disruptors of Mint-PDZ/N-type channel peptide interaction – biochemical, HTRF, set 2, SAR follow-up (AID 434980); assay type: functional
[16] = target: Glucose-6-phosphate 1-dehydrogenase (Homo sapiens, UniProt P11413); test: human G6PD enzyme inhibitors, dose response, selectivity assay for P. falciparum G6PD inhibitor project, biochemical, fluorescence (AID 504792); assay type: functional
[17] = target: T4, Voltage-gated N-type calcium channel alpha-1B subunit/Amyloid beta A4 precursor protein-binding family A member 1; test: disruptors of Mint-PDZ/N-type channel peptide interaction – biochemical, HTRF, SAR follow-up (AID 2489); assay type: functional
[18] = target: T4, Voltage-gated N-type calcium channel alpha-1B subunit/Amyloid beta A4 precursor protein-binding family A member 1; assay type: protein assay
[19] = target: T4, Voltage-gated N-type calcium channel alpha-1B subunit/Amyloid beta A4 precursor protein-binding family A member 1; assay type: protein assay; remark: listed apart in the source
Phosphomannomutase 2 = Phosphomannomutase 2 (Homo sapiens, UniProt O15305); test: Counter screen SAR assay for PMM2 inhibitors via a fluorescence intensity assay. [Related pubchem assays (depositor defined):AID1545, AID1574]
[20] = target: Phosphoethanolamine/phosphocholine phosphatase (Homo sapiens, UniProt Q8TCT1); test: SAR assay for compounds that inhibit PHOSPHO1. [Related pubchem assays (depositor defined):AID1545, AID1565, AID1574]
[21] = target: T5, Mannose-6-phosphate isomerase (Homo sapiens, UniProt P34949); test: PMI enzyme inhibitors, confirmation, biochemical, fluorescence intensity (AID 1535)
T5 sequence (P34949 whole entry): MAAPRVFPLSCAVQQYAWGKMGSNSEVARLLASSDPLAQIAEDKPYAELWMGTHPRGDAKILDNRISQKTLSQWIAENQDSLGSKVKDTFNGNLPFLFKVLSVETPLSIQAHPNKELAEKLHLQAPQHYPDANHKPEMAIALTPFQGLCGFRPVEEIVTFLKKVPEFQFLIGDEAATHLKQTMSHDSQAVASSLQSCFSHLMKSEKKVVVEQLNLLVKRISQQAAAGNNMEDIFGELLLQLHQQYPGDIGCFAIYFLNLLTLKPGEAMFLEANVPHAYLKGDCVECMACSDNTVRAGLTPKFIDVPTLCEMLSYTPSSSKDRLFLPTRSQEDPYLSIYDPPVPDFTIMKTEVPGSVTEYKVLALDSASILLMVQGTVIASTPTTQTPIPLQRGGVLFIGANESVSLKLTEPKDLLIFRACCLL

[22] = target: Protein phosphatase methylesterase 1 (Homo sapiens, UniProt Q9Y570); test: PME-1 inhibitor potency by in-gel ABPP, dose response, selectivity assay for PME-1 inhibitor project, cell lysate, mouse brain cytosol, FP-rhodamine, panel member PME-1 Assay Panel member description: Inhibition of endogenously expressed PME-1 (AID 2366)
[23] = growth suppression of beta-catenin-knockout colon cells, dose response, cell-based, HCT116, human colon tumor (AID 1045); assay type: functional;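 note: HCT116 colon tumor cells with beta catenin knocked out; cells exposed to compound for 60 hours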
[24] = growth suppression of PTEN-null colon cells, dose response, cell-based, HCT116 PTEN knockout (AID 1047); assay type: functional;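 note: HCT116 colon tumor cells with PTEN knocked out; cells exposed to compound for 60 hours before readout; potency for loss of cell viability measured by luminescence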
[25] = target: Scavenger receptor class B member 1 (Mus musculus, UniProt Q61009); test: inhibitors of SR-BI mediated HDL lipid uptake, dose response, ldlA[mSR-BI] cells, fluorescence, cherry pick (AID 493194); assay type: functional, cell-based;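 note: cellular uptake of fluorescent DiI-labeled HDL measured as cell fluorescence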
Protein skinhead-1 = target: T6, Protein skinhead-1 (Caenorhabditis elegans, UniProt P34707); assay type: functional
T6 sequence (P34707 whole entry): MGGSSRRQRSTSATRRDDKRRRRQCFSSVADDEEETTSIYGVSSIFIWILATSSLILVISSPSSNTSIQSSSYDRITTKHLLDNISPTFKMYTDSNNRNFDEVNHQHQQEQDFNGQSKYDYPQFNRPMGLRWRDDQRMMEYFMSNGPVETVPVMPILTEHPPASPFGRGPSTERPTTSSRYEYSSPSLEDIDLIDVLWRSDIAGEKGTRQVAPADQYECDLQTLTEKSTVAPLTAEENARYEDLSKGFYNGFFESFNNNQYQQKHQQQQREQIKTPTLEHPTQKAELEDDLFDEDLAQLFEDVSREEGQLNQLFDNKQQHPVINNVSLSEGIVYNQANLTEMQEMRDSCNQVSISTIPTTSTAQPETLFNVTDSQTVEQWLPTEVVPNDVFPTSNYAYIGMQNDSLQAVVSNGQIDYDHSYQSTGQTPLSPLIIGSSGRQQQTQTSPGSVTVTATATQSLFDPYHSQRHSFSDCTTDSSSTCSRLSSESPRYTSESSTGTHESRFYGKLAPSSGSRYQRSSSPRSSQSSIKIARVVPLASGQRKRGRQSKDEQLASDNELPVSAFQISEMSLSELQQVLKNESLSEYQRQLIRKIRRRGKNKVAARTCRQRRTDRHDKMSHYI

[26] = target: Acyl-homoserine lactone acylase PvdQ (Pseudomonas aeruginosa (strain LESB58), UniProt Q9I194); test: P. aeruginosa PvdQ acylase inhibitors, dose response, biochemical, fluorescence, plate reader and imaging, cherry-picks (AID 493231)
[27] = target: T7, Ubiquitin-conjugating enzyme E2 N (Homo sapiens, UniProt P61088); assay type: functional;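 note: Dose-response confirmation in a TR-FRET assay detecting UBC13-driven polyubiquitin chain formation, inhibition measured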
T7 sequence (P61088 whole entry): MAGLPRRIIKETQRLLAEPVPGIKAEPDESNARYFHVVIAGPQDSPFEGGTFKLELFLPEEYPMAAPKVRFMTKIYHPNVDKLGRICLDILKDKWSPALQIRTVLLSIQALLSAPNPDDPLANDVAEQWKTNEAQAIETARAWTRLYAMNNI

T4 sequence (Q00975 whole entry): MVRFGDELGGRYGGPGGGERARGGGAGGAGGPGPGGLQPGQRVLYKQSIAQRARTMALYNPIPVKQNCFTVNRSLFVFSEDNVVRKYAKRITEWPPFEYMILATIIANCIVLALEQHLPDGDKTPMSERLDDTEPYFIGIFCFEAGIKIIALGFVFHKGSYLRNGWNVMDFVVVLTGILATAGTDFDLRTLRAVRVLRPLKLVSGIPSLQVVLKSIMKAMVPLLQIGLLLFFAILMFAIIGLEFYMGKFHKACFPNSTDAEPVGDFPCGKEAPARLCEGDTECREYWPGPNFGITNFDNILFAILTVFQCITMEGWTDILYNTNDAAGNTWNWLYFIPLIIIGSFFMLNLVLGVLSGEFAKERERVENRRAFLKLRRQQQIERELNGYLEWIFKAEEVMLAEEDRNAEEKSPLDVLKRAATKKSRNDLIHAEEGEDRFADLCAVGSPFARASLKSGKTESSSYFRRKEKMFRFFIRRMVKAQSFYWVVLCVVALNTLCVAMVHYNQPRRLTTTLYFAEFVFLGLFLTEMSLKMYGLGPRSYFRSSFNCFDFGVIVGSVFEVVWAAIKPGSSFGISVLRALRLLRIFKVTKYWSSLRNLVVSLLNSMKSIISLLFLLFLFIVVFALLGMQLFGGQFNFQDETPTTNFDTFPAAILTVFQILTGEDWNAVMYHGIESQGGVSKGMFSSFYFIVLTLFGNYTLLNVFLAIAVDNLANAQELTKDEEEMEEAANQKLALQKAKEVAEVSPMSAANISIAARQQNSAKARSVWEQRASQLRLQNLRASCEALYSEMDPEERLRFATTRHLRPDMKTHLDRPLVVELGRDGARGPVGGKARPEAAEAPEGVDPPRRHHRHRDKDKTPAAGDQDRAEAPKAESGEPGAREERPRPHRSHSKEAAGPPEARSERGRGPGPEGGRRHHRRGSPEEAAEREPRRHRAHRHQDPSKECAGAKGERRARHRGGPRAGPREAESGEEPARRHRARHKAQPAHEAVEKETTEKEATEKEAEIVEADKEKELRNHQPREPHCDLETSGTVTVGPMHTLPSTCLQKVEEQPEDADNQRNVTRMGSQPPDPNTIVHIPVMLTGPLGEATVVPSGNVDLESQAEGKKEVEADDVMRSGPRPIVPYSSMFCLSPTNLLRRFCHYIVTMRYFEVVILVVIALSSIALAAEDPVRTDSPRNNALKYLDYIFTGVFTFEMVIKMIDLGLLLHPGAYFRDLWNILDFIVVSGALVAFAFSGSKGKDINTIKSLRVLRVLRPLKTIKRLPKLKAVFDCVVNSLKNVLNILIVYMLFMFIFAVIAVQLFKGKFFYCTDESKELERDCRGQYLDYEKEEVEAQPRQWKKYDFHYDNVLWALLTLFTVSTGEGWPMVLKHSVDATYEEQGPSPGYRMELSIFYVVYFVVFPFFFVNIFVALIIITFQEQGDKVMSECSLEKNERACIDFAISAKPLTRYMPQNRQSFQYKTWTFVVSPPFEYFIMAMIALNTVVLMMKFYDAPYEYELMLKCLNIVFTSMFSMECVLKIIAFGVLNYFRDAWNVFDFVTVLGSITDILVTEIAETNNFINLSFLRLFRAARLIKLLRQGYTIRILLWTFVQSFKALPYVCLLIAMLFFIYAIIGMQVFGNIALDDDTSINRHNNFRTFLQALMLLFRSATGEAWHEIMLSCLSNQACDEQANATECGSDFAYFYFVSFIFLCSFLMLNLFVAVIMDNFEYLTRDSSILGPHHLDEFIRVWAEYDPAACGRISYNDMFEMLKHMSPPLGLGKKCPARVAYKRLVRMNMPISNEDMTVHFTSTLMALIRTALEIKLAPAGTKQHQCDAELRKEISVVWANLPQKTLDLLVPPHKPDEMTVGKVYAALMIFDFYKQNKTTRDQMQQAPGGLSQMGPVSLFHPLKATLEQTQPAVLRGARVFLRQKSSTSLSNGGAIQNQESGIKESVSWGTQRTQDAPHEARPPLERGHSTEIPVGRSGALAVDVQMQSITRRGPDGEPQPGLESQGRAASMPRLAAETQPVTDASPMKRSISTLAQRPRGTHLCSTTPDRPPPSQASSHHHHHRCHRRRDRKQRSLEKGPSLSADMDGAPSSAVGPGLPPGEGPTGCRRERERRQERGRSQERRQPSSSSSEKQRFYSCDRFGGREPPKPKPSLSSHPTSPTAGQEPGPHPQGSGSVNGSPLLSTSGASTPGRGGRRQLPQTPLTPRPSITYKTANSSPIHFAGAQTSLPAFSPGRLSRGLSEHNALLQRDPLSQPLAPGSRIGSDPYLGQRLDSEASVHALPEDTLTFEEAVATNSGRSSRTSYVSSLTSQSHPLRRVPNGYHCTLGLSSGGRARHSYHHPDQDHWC
T4 sequence (Q02410 whole entry): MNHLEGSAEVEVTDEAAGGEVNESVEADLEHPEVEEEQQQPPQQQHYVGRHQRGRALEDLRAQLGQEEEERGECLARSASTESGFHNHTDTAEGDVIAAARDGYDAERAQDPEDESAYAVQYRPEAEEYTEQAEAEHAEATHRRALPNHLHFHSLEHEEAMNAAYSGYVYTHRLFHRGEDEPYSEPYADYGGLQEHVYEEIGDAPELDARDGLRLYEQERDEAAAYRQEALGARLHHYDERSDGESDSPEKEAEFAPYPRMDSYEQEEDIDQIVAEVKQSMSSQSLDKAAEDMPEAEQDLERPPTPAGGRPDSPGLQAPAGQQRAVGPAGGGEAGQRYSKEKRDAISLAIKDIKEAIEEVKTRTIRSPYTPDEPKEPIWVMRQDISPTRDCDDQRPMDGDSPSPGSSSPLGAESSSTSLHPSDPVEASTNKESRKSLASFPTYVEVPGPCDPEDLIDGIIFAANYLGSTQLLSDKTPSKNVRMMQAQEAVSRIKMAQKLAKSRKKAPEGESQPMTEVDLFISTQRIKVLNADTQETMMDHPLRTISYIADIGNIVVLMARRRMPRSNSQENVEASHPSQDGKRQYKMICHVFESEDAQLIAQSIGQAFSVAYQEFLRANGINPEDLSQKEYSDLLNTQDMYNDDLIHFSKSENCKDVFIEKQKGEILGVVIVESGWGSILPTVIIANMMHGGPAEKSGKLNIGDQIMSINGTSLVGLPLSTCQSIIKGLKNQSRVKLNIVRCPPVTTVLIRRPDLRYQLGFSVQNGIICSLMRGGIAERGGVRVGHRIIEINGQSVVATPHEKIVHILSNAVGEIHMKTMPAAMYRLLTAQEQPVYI
T1 sequence (Q9Y2T6 whole entry): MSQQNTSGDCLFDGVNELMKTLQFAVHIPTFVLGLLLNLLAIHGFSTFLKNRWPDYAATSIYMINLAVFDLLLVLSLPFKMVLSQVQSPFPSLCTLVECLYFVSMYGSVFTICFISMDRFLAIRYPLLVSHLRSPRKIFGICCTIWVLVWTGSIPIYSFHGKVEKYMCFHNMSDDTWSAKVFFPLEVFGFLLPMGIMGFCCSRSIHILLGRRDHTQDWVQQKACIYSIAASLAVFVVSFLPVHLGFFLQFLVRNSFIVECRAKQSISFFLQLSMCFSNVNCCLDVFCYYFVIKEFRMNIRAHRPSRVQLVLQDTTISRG
ORF 73, sequence (O40947 whole entry): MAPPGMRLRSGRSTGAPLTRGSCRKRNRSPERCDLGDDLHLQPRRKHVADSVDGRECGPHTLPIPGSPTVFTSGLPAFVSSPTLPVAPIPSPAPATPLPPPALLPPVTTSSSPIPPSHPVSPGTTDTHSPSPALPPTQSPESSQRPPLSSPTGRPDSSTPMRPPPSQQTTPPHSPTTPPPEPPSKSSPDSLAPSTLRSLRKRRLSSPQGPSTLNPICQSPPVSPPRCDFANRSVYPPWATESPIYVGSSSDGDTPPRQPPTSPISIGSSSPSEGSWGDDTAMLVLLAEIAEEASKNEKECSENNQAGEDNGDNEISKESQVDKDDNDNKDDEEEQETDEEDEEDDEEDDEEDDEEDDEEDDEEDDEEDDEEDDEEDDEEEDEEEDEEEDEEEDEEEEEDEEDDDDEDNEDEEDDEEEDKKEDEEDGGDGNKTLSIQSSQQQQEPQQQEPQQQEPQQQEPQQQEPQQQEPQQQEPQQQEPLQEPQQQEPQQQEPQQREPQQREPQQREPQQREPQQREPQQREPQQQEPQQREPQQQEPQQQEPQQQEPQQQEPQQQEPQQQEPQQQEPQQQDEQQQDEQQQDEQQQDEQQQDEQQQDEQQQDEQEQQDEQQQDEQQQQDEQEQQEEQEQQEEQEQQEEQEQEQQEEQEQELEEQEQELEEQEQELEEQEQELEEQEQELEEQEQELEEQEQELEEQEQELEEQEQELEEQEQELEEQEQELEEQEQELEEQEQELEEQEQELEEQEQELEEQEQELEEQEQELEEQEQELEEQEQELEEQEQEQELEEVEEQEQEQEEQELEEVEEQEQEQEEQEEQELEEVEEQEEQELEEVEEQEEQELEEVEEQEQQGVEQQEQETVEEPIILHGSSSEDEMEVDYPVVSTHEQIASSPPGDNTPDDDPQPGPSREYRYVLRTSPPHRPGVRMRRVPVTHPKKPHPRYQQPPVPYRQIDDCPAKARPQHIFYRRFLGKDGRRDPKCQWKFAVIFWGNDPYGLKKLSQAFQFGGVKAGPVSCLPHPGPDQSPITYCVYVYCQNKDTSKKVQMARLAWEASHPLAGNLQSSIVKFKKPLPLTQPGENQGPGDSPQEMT
Bcl-2-like protein 10, sequence (Q9HD36 whole entry): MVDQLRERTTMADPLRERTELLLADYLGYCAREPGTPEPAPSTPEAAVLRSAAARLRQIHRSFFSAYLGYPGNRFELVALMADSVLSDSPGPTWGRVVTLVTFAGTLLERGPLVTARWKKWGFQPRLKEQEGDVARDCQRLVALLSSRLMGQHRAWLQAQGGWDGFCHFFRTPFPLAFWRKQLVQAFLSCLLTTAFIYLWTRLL
Phosphomannomutase 2, sequence (O15305 whole entry): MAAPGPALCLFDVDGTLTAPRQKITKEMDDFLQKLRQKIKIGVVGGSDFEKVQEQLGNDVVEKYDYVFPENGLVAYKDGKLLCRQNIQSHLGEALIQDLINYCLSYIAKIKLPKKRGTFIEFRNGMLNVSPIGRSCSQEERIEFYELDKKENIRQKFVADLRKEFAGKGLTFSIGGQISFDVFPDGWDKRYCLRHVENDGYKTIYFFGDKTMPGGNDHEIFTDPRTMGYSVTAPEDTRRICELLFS

Cc1ccc(NC(=O)Nc2cccnc2)cc1C
EC50 [1]: 13.4 µM (active)

O=C(CCl)N(CCCCNC(=O)C(F)(F)F)c1ccc([N+](=O)[O-])cc1
IC50 [2]: 0.012 µM (active)

COc1ccc(C)cc1Nc1n[n+](-c2ccccc2)c(-c2ccc(N(C)C)cc2)s1
EC50 [3]: > 150 µM (inactive)
EC50 [4]: 2.27 µM (active)
AC50 (INS1): 2.53 µM (active)
IC50 [5]: 3.42 µM (active)
IC50 [6]: 3.54 µM (active)

O=C(c1ccco1)N1CCN(c2ncnc3c2nnn3Cc2ccccc2Cl)CC1
EC50 [7]: 13.7 µM (inactive)

O=C(c1coc(=O)c(Br)c1)N1CCOCC1
IC50 [8]: 88.3 µM (active)
AC50 [9]: 12.1 µM (active)
IC50 [10]: 7.34 µM (active)
IC50 (Bcl-2-like protein 10): 34 µM (active)

NC(S)=NN=Cc1ccc(-c2ccc(S(=O)(=O)Nc3ncccn3)cc2)o1
AC50 [9]: 15.3 µM (active)
AC50 (ORF 73): 97.3 µM (active)

COc1ccc(N(C(=O)CCl)C(C(=O)NCCc2ccccc2)C(C)C)cc1Cl (stereo not drawn)
AC50 [11]: 1.81 µM (active)
AC50 [12]: 1.3 µM (active)
AC50 [13]: 0.887 µM (active)
AC50 [14]: 0.895 µM (active)

Cc1ccc(/C=C/C(=O)NCc2ccc(S(N)(=O)=O)cc2)o1
IC50 [15]: 4.23 µM (active)
IC50 [16]: > 80 µM (inactive)
IC50 [17]: 3.34 µM (active)
IC50 [18]: 3.12 µM (active)
IC50 [19]: 8.37 µM (active)

O=c1c2ccc(F)cc2sn1-c1cc(Cl)c(Cl)cc1Cl
IC50 (Phosphomannomutase 2): > 100 µM (inactive)
IC50 [20]: 0.563 µM (active)
IC50 [21]: > 50 µM (inactive)

CCCCS(=O)(=O)n1cccc1/C=C(\C#N)S(C)(=O)=O
IC50 [22]: > 20 µM (inactive)

COc1cc(C2CC(=O)c3c([nH]c(C(=O)OCCOC(C)C)c3C)C2)cc(OC)c1OC (stereo not drawn)
EC50 [23]: 31 µM (active)
EC50 [24]: 38.4 µM (active)
AC50 [25]: 18 µM (active)

Cc1cccn2c(=O)c(C=O)c(N3CCCCCC3)nc12
IC50 (Protein skinhead-1): > 100 µM (inactive)
AC50 [26]: 24.8 µM (active)
IC50 [27]: > 20 µM (inactive)
